Here are results for one compound from publication PMC6586855, “Orobol, an Enzyme-Convertible Product of Genistein, exerts Anti-Obesity Effects by Targeting Casein Kinase 1 Epsilon” (Scientific Reports, 2019).

Assay [1] concerns the target T1, CK1ε (Homo sapiens, UniProt P49674).
T1 construct: gene CSNK1E; commercial active kinase; Reaction Biology panel for activity, SignalChem protein for pull-down
As to the kind of experiment: pull-down on orobol-Sepharose 4B beads, immunoblot. The assay is classed as binding. As to conditions: orobol coupled to beads; pH 7.5, 4 °C; competed by ATP. Background: A western blot detects proteins with antibodies after separation by electrophoresis.

In another assay the target is T2, RON/MST1R (Homo sapiens, UniProt Q04912).
T2 construct: Reaction Biology kinase panel
T2 sequence (Q04912 979-1400 limits assumed): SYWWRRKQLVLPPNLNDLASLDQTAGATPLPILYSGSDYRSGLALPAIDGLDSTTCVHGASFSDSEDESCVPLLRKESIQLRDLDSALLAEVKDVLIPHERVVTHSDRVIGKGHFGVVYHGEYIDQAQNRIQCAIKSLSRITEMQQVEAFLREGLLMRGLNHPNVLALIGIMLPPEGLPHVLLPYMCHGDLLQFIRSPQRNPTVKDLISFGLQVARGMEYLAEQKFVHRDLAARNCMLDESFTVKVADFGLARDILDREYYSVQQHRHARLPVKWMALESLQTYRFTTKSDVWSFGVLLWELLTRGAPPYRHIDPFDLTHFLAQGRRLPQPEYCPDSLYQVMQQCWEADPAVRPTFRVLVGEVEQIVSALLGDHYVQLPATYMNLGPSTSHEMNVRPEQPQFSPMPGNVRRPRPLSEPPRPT
As to the kind of experiment: […]-ATP kinase assay, P81 filter binding. The assay is classed as biochemical.

For a further assay, the target named is T3, PBK/TOPK (Homo sapiens, UniProt Q96KB5).
T3 construct: Reaction Biology kinase panel
T3 sequence (Q96KB5 1-322): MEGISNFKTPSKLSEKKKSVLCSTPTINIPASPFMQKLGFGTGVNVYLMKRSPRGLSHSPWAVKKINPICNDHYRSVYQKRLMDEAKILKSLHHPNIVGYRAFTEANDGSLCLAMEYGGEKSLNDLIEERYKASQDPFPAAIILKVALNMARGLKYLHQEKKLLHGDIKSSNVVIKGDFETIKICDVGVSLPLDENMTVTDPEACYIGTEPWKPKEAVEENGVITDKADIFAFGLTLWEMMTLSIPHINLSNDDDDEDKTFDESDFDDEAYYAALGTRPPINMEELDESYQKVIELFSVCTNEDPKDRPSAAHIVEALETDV
The assay can be described thus: […]-ATP kinase assay, P81 filter binding. The assay is classed as biochemical.

Another assay concerns the target T4, PI3Kα (Homo sapiens, UniProt P42336).
T4 construct: gene PIK3CA; commercial kinase; with Phosphatidylinositol 3-kinase regulatory subunit alpha
The assay can be described thus: kinase inhibition assay. The assay is classed as biochemical. An excerpt: kinase inhibition assay on PI3Kα

A further assay concerns the target T5, PI3Kβ (Homo sapiens, UniProt P42338).
T5 construct: gene PIK3CB; commercial kinase; with Phosphatidylinositol 3-kinase regulatory subunit alpha
The assay can be described thus: kinase inhibition assay. The assay is classed as biochemical. The source says: kinase inhibition assay on PI3Kβ

The next assay deals with T6, NEK6 (Homo sapiens, UniProt Q9HC98).
T6 construct: Reaction Biology kinase panel
T6 sequence (Q9HC98 whole entry): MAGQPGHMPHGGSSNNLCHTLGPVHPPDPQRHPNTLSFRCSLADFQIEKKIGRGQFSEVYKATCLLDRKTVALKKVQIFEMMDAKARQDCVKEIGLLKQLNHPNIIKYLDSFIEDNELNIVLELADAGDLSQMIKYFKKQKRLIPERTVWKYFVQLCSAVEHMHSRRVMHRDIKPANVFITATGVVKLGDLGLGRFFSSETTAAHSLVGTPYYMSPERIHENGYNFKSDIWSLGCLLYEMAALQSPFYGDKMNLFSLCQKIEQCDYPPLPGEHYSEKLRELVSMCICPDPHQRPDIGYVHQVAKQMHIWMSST
As to the kind of experiment: […]-ATP kinase assay, P81 filter binding. The assay is classed as biochemical.

Another assay deals with T7, KDR/VEGFR2 (Homo sapiens, UniProt P35968).
T7 construct: Reaction Biology kinase panel
T7 sequence (P35968 789-1356 limits assumed): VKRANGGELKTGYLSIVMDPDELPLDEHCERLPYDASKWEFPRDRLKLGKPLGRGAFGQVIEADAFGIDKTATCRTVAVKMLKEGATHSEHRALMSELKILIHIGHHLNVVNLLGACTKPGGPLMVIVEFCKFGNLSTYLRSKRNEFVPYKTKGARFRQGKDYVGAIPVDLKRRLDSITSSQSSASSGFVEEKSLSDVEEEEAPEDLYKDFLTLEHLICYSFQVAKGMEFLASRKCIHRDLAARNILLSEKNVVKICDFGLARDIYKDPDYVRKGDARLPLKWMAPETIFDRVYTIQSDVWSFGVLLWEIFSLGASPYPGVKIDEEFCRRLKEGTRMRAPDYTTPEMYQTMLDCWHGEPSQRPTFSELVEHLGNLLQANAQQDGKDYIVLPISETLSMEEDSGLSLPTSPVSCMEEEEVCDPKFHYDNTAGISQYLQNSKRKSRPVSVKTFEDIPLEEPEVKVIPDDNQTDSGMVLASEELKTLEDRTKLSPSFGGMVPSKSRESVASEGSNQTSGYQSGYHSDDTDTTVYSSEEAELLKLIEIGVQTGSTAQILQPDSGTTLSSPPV
The assay can be described thus: […]-ATP kinase assay, P81 filter binding. The assay is classed as biochemical.

Another assay deals with T8, MNK1 (Homo sapiens, UniProt Q9BUB5).
T8 construct: gene MKNK1; Reaction Biology kinase panel
The assay can be described thus: […]-ATP kinase assay, P81 filter binding. The assay is classed as biochemical.

A further assay deals with T9, KHS/MAP4K5 (Homo sapiens, UniProt Q9Y4K4).
T9 construct: Reaction Biology kinase panel
The assay can be described thus: […]-ATP kinase assay, P81 filter binding. The assay is classed as biochemical.

For another assay, the target named is T10, PI3Kγ (Homo sapiens, UniProt P48736).
T10 construct: gene PIK3CG; commercial kinase
T10 sequence (P48736 whole entry): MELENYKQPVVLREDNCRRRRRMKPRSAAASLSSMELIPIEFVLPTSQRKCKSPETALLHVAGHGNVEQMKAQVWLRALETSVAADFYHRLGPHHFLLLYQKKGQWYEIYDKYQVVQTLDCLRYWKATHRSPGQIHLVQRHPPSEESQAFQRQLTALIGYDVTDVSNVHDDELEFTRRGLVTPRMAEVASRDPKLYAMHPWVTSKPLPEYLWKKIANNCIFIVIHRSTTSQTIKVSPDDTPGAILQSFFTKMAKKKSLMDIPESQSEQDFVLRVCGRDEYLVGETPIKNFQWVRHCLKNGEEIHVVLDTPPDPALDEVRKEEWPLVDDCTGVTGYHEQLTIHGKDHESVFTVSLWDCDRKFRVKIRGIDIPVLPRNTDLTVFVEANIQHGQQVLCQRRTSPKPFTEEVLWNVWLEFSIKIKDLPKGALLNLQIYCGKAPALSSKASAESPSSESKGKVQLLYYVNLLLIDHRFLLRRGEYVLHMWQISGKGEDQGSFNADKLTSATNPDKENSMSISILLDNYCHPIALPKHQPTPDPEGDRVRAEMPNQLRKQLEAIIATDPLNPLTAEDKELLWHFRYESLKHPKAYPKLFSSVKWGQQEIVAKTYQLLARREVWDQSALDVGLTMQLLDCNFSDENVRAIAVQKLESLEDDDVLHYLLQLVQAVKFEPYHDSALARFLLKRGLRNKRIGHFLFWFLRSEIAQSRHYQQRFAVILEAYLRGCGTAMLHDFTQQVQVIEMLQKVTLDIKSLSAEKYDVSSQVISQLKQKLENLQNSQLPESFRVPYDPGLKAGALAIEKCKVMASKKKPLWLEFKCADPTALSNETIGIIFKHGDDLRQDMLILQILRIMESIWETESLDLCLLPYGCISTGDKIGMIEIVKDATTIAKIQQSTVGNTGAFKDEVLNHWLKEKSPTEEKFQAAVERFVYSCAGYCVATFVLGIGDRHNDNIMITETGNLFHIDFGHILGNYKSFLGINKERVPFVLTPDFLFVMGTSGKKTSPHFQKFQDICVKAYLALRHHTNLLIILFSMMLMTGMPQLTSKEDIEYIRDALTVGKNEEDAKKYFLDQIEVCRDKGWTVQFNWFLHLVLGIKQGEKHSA
The assay can be described thus: kinase inhibition assay. The assay is classed as biochemical. The source says:
kinase inhibition assay on PI3Kγ

The target in the next assay is T11, CDK5/p25 (Homo sapiens, UniProt Q00535).
T11 construct: Reaction Biology kinase panel; complex with p25, the C-terminal fragment of p35
T11 sequence (Q00535 whole entry, the tested form may be a part): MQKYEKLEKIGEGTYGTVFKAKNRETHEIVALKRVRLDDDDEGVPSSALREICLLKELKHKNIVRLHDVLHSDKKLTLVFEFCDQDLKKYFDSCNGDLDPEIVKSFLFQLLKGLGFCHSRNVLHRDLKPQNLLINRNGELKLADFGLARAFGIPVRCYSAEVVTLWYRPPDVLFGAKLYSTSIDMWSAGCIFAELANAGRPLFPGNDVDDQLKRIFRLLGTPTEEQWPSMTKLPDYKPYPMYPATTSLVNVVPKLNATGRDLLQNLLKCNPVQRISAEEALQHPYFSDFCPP
T11 sequence (Q15078 99-307 partner limits assumed): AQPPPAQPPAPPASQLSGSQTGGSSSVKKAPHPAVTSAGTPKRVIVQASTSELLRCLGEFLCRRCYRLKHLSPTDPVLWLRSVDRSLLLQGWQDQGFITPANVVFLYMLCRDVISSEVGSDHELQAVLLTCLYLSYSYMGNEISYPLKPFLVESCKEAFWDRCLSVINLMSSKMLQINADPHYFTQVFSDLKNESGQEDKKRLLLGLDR
As to the kind of experiment: […]-ATP kinase assay, P81 filter binding. The assay is classed as biochemical.

In assay [2] the target is T1, CK1ε. As to the kind of experiment: […]-ATP kinase assay, P81 filter binding. The assay is classed as biochemical.
The target of a further assay is T12, TNIK (Homo sapiens, UniProt Q9UKE5).
T12 construct: Reaction Biology kinase panel
As to the kind of experiment: […]-ATP kinase assay, P81 filter binding. The assay is classed as biochemical.

Assay [3] concerns the target T13, CK1ε (Mus musculus, UniProt Q9JMK2).
T13 construct: gene Csnk1e; endogenous protein in 3T3-L1 preadipocyte lysate, detected with anti-CK1ε antibody
T13 sequence (Q9JMK2 1-416): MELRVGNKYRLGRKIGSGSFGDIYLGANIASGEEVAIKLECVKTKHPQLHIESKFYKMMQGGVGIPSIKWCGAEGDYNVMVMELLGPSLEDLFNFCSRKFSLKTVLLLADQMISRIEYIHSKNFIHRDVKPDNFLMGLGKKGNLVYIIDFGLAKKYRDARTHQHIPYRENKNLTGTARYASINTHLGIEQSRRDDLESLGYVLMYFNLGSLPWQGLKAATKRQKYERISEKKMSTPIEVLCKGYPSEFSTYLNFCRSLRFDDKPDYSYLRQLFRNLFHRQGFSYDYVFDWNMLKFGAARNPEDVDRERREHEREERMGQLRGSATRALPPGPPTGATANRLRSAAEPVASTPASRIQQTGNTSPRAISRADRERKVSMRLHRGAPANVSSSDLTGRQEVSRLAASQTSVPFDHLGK
The assay can be described thus: pull-down from 3T3-L1 lysate on orobol-Sepharose 4B beads, immunoblot. The assay is classed as biochemical. To be noted: orobol coupled to beads; pH 7.5, 4 °C.

Another assay has as its target T14, MUSK (Homo sapiens, UniProt O15146).
T14 construct: Reaction Biology kinase panel
T14 sequence (O15146 517-869 limits assumed): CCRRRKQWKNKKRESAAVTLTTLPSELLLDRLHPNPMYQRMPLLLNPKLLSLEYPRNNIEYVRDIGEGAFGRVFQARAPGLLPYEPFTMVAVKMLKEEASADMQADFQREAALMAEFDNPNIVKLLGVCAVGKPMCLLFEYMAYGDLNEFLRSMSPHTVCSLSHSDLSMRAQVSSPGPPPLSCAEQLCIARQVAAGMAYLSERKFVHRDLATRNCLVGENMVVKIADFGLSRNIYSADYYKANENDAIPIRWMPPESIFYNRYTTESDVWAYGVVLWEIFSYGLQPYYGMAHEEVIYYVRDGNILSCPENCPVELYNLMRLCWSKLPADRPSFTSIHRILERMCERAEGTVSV
The assay can be described thus: […]-ATP kinase assay, P81 filter binding. The assay is classed as biochemical.

The target of a further assay is T15, PI3Kδ (Homo sapiens, UniProt O00329).
T15 construct: gene PIK3CD; commercial kinase; with Phosphatidylinositol 3-kinase regulatory subunit alpha
T15 sequence (O00329 whole entry): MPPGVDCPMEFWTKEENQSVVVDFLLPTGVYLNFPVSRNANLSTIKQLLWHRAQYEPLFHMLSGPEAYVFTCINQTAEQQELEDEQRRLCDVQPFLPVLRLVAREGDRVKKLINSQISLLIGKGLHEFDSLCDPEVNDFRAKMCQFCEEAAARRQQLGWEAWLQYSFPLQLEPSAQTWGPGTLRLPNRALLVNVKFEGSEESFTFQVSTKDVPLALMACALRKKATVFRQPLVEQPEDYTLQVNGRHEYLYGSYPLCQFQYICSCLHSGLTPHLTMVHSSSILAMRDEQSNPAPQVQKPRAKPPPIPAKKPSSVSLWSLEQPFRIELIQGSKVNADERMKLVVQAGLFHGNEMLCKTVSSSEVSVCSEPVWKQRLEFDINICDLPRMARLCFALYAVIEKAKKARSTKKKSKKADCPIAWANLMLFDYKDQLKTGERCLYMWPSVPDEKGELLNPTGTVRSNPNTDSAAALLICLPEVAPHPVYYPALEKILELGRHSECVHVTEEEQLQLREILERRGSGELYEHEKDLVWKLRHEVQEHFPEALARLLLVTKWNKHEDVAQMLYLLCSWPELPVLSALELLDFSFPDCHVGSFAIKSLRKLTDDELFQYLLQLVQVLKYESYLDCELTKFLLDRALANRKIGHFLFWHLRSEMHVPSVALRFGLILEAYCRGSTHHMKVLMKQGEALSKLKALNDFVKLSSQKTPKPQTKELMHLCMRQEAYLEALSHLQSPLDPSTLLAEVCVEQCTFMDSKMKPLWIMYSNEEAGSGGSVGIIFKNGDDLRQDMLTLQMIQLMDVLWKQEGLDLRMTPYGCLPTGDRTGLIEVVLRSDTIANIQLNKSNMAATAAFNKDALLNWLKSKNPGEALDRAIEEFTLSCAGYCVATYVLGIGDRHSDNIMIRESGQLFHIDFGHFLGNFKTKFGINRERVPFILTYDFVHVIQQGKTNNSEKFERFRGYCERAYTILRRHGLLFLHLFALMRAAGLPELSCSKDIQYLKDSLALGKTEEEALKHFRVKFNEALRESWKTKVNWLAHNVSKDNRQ
T15 sequence (P27986 2-724 partner): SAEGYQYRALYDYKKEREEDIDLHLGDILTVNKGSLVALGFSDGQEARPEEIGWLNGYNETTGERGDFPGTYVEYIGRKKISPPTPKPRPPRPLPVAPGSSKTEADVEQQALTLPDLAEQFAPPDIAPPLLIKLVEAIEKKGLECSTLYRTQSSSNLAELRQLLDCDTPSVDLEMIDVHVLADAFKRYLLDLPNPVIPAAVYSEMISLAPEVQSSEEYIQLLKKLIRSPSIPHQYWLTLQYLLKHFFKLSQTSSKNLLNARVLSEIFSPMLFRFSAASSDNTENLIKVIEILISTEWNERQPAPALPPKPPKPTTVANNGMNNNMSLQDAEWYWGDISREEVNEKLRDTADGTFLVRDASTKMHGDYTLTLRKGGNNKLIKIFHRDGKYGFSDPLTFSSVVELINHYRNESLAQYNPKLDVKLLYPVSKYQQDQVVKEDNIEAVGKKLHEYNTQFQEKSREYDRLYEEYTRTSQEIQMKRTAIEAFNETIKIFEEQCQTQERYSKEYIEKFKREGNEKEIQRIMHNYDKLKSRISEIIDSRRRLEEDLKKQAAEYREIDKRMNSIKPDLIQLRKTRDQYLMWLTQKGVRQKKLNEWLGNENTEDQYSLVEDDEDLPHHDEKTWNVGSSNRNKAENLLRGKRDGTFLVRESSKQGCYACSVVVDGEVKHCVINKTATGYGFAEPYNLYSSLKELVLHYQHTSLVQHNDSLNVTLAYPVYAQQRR
The assay can be described thus: kinase inhibition assay. The assay is classed as biochemical. An excerpt:
kinase inhibition assay on PI3Kδ

T1 sequence (P49674 whole entry): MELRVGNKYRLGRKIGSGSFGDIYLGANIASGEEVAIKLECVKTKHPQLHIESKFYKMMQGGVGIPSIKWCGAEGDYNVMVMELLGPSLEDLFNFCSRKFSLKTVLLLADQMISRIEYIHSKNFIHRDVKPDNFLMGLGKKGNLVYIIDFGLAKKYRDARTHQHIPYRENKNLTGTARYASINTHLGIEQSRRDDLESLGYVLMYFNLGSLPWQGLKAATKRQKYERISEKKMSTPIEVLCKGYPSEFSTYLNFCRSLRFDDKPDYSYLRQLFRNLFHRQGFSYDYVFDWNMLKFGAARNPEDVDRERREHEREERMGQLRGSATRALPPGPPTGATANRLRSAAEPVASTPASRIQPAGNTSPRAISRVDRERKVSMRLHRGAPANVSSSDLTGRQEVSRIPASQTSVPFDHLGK

A word on the IC50: it is the concentration that gives 50% inhibition. Take `O=c1c(-c2ccc(O)c(O)c2)coc2cc(O)cc(O)c12` [orobol]: the “pull-down on orobol-Sepharose 4B beads, immunoblot” value at CK1ε [1] is given as “The CK1ε kinase bound to orobol–sepharose 4B beads, but not to control sepharose 4B beads”. The activity at 1 µM came to 78% on RON/MST1R, 79% on NEK6 and 78% at CDK5/p25. Further, the IC50 at PBK/TOPK amounted to 1670 nM; at PI3Kα it was 3460 nM; on PI3Kβ it was 5440 nM; on KDR/VEGFR2, 4450 nM; on MNK1, 2130 nM; on KHS/MAP4K5, 1420 nM. Also, the IC50 on PI3Kγ is 4760 nM; on CK1ε [2], 1240 nM; at TNIK, 1540 nM; on MUSK, 1480 nM; at PI3Kδ, 5270 nM. Besides, the “pull-down from 3T3-L1 lysate on orobol-Sepharose 4B beads, immunoblot” value at CK1ε [3] is on record as “Orobol directly interacts with CK1ε in 3T3-L1 cell lysates”.
